MIC and inhibition data for twelve molecules are collected here from ChEMBL document CHEMBL1806355, “Synthesis and evaluation of 1-cyclopropyl-2-thioalkyl-8-methoxy fluoroquinolones” (2011).

The subject of assay [1] is Mycolicibacterium smegmatis. The assay is described as follows: Antibacterial activity against Mycobacterium smegmatis KD1163. The class given is functional.
In assay [2] the test system is Escherichia coli. The assay is described as follows: Antibacterial activity against Escherichia coli KD65. Format: functional.
Assay [3] has as its system Escherichia coli. Nature of the assay: Antibacterial activity against tolC knockout Escherichia coli KD1397. The class given is functional.
Assay [4] in a line: Inhibition of DNA gyrase.

Structures are written as SMILES. In brackets after ≈: the same amount, converted by molar mass. Activity calls are given as the source filed them. The calls are words filed in the database; no cut-off is given here.

In general, MIC refers to the lowest concentration that inhibits growth of the organism. Regarding `CC1Sc2cc(=O)c3cc(F)c(N4CCNCC4)cc3n21` (stereo unspecified) [DESCARBOXYULIFLOXACIN], the MIC is 200 µg/mL (≈ 655 µM) in assay [1], > 200 µg/mL in assay [2] and 200 µg/mL (≈ 655 µM) in assay [3].

As to `CC1Sc2c(C(=O)O)c(=O)c3cc(F)c(N4CCNCC4)cc3n21` (stereo unspecified) [ULIFLOXACIN], the MIC amounted to 3.13 µg/mL (≈ 8.96 µM) in assay [1], 0.062 µg/mL (≈ 0.177 µM) in assay [2] and 0.016 µg/mL (≈ 0.0458 µM) in assay [3].

For the molecule `CCSc1cc(=O)c2cc(F)c(N3C[C@@H]4CCCN[C@@H]4C3)c(OC)c2n1C1CC1`, the inhibition entry in assay [4] was “Active”. Besides, the MIC is > 200 µg/mL in assay [1], > 200 µg/mL in assay [2] and 100 µg/mL (≈ 239 µM) in assay [3].

In the case of `COc1c(N2C[C@@H]3CCCN[C@@H]3C2)c(F)cc2c(=O)c(C(=O)O)cn(C3CC3)c12` [MOXIFLOXACIN], the MIC in assay [1] was 0.08 µg/mL (≈ 0.199 µM); in assay [2], 0.156 µg/mL (≈ 0.389 µM); in assay [3], 0.004 µg/mL (≈ 0.00996 µM).

For the molecule `CCSc1c(C(=O)O)c(=O)c2cc(F)c(N3CCNCC3)c(OC)c2n1C1CC1`, the inhibition result in assay [4] is “Active”. The MIC in assay [1] is > 200 µg/mL; in assay [2], 200 µg/mL (≈ 475 µM); in assay [3] it was 12.5 µg/mL (≈ 29.7 µM).

`CCSc1cc(=O)c2cc(F)c(N3CCNCC3)c(OC)c2n1C1CC1`: in assay [4], the inhibition result was “Active”. Further, the MIC is > 50 µg/mL in assay [1], > 50 µg/mL in assay [2] and 25 µg/mL (≈ 66.2 µM) in assay [3].

As for `COc1c(N2C[C@@H]3CCCN[C@@H]3C2)c(F)cc2c(=O)ccn(C3CC3)c12`, the MIC is > 200 µg/mL in assay [1], > 200 µg/mL in assay [2] and 100 µg/mL (≈ 280 µM) in assay [3].

`CCSc1c(C(=O)O)c(=O)c2cc(F)c(N3C[C@@H]4CCCN[C@@H]4C3)c(OC)c2n1C1CC1`: the inhibition entry in assay [4] was “Active”. In addition, the MIC in assay [1] is 50 µg/mL (≈ 108 µM); in assay [2], > 50 µg/mL; in assay [3], > 50 µg/mL.

For `COc1c(N2C[C@@H]3CCCN[C@@H]3C2)c(F)cc2c(=O)cc(SC(C)C)n(C3CC3)c12`, the inhibition result in assay [4] was “Active”. For the same molecule, the MIC in assay [1] was 50 µg/mL (≈ 116 µM); in assay [2], > 50 µg/mL; in assay [3], 50 µg/mL (≈ 116 µM).

As to `O=C(O)c1cn(C2CC2)c2cc(N3CCNCC3)c(F)cc2c1=O` [CIPROFLOXACIN], the MIC in assay [1] is 0.156 µg/mL (≈ 0.471 µM); in assay [2] it was 0.04 µg/mL (≈ 0.121 µM).

Regarding `COc1c(N2CCNCC2)c(F)cc2c(=O)cc(SC(C)C)n(C3CC3)c12`, the inhibition result in assay [4] is “Active”. The MIC in assay [1], in assay [2] and in assay [3] was > 50 µg/mL each time.

Consider `O=c1ccn(C2CC2)c2cc(N3CCNCC3)c(F)cc12`, for which the MIC in assay [1] amounted to 6.25 µg/mL (≈ 21.8 µM); in assay [2], 50 µg/mL (≈ 174 µM); in assay [3], 1.56 µg/mL (≈ 5.43 µM).
